Laboratory results reported in patent US20130172345A1, “1-ACYL-4-(PHENOXY, BENZYLOXY, OR PHENYLAMINO)-1,2,3,4-TETRAHYDROQUINOLINE DERIVATIVES” (KOWA COMPANY, LTD., priority 2007, published 2013).
Counter-ions that a name gives are not always drawn.

Experiments:
[1] = system: HepG2 cells originating from human liver cancer; test: EPO production in HepG2 cells (EPO ELISA of culture supernatant, 4% oxygen, 48 hrs); format: cell-based; conditions: test compound 3 μM, oxygen 4%, non-stimulated state = 100%, read-out: EPO production amount, % of control (3 μM)
Experimental: HepG2 cells originating from human liver cancer were seeded at a density of 1×10^4 cells per well on a 24-well plate by using minimum essential medium (MEM, manufactured by Sigma) comprising 10% bovine fetal serum. Next day, the medium was exchanged with Dulbecco's modified eagle medium (DMEM, manufactured by Sigma) comprising 10% bovine fetal serum lacking phenol red. Then, the test compound dissolved in DMSO was added thereto to obtain the final concentration of 3 μM or 10 μM while having 400 μl of the medium per well. The cells were incubated for 48 hrs in a CO2 incubator which had been adjusted to have oxygen concentration of 4%, followed by collecting the culture supernatant. The EPO concentration in the culture supernatant was immediately measured by using EPO ELISA kit (manufactured by Roche Diagnostics K.K.). Specific procedures were carried out according to the manufacturer's protocol included in the kit.
When EPO production amount in non-stimulated state, i.e., without addition of any compound, was 100%, the EPO production amount induced by each compound was calculated (% of control).

[2] = system: K562 cells, human proerythroblast cells; test: Hemoglobin production in K562 cells (fluorescence of the porphyrin ring); format: cell-based; conditions: 144 h, test compound 6 μM, 3+3 days, non-stimulated state = 100%, read-out: production amount of hemoglobin, % of control (6 μM)
Summary of the method: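 K562 cells at 1×10^5 cells/mL in RPMI-1640 with 10% FBS, exposed to compound 3 days, medium exchanged, then 3 more days at 37 °C, 5% CO2. Hemoglobin from 3×10^5 cells measured as porphyrin fluorescence after boiling 30 min in 2 M oxalic acid; expressed as % of untreated control.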

CC(=O)N1c2ccccc2C(Nc2ccc(NS(C)(=O)=O)cc2)CC1C (stereo not shown) [Compound 39, 1-acetyl-4-[(4-methanesulfonylamidephenyl)amino]-2-methyl-1,2,3,4-tetrahydroquinoline]
activity at 3 µM [1]: 131%
activity at 6 µM [2]: 327%

CC(=O)N1c2ccc(N3CCOCC3)cc2C(Nc2ccc(Cl)cc2)CC1C (stereo not shown) [Compound 40, 1-acetyl-4-[(4-chlorophenyl)amino]-2-methyl-6-morpholino-1,2,3,4-tetrahydroquinoline.hydrochloride]
activity at 3 µM [1]: 144%
activity at 6 µM [2]: 256%

CC(=O)N1c2ccc(C(=O)O)cc2C(Nc2ccc(Cl)cc2)CC1C (stereo not shown) [Compound 42, 1-acetyl-4-[(4-chlorophenyl)amino]-2-methyl-1,2,3,4-tetrahydroquinoline-6-carboxylic acid]
activity at 3 µM [1]: 102%
activity at 6 µM [2]: 303%

CC(=O)N1c2cc(N3CCOCC3)ccc2C(Nc2ccc(Cl)cc2)CC1C (stereo not shown) [Compound 44, 1-acetyl-4-[(4-chlorophenyl)amino]-2-methyl-7-morpholino-1,2,3,4-tetrahydroquinoline]
activity at 3 µM [1]: 301%
activity at 6 µM [2]: 162%

CC(=O)N1c2ccc(NS(C)(=O)=O)cc2C(Nc2ccc(Cl)cc2)CC1C (stereo not shown) [Compound 45, 1-acetyl-4-[(4-chlorophenyl)amino]-2-methyl-6-methanesulfonylamino-1,2,3,4-tetrahydroquinoline]
activity at 3 µM [1]: 286%
activity at 6 µM [2]: 387%

CC(=O)N1c2ccccc2C(N(C)c2ccccc2)CC1C (stereo not shown) [Compound 46, 1-acetyl-4-(N-methyl-N-phenylamino)-2-methyl-1,2,3,4-tetrahydroquinoline]
activity at 3 µM [1]: 391%
activity at 6 µM [2]: 326%

CC1CC(Nc2ccccc2)c2ccccc2N1C(=O)C1CC1 (stereo not shown) [Compound 47, 1-cyclopropanecarbonyl-2-methyl-4-phenylamino-1,2,3,4-tetrahydroquinoline]
activity at 3 µM [1]: 292%
activity at 6 µM [2]: 701%

CCOC(=O)c1ccc2c(c1)C(Oc1ccc(F)cc1)CC(C)N2C(C)=O (stereo not shown) [Compound 53, ethyl 1-acetyl-4-(4-fluorophenoxy)-2-methyl-1,2,3,4-tetrahydroquinoline-6-carboxylate]
activity at 3 µM [1]: 134%
activity at 6 µM [2]: 307%

CNC(=O)N1c2ccc(F)cc2C(Nc2ccc(F)cc2)CC1C (stereo not shown) [Compound 65, 6-fluoro-4-[(4-fluorophenyl)amino]-2-methyl-1-N-methylcarbamoyl-1,2,3,4-tetrahydroquinoline]
activity at 3 µM [1]: 414%
activity at 6 µM [2]: 461%

COCc1ccc(NC2CC(C)N(C(C)=O)c3ccccc32)cc1 (stereo not shown) [Compound 69, 1-acetyl-4-[(4-methoxymethylphenyl)amino]-2-methyl-1,2,3,4-tetrahydroquinoline]
activity at 3 µM [1]: 150%
activity at 6 µM [2]: 407%

CC(=O)N1c2ccccc2C(Nc2ccc(CC(=O)O)cc2)CC1C (stereo not shown) [Compound 71, 1-acetyl-4-[(4-carboxymethylphenyl)amino]-2-methyl-1,2,3,4-tetrahydroquinoline]
activity at 3 µM [1]: 149%
activity at 6 µM [2]: 150%

CC(=O)N1c2ccccc2C(Nc2ccccc2N2CCOCC2)CC1C (stereo not shown) [Compound 72, 1-acetyl-2-methyl-4-[(2-morpholinophenyl)amino]-1,2,3,4-tetrahydroquinoline]
activity at 3 µM [1]: 243%
activity at 6 µM [2]: 577%

CC(=O)N1c2ccc(Br)cc2C(Nc2ccc(Cl)cc2)CC1C (stereo not shown) [Compound 74, 1-acetyl-6-bromo-4-[(4-chlorophenyl)amino]-2-methyl-1,2,3,4-tetrahydroquinoline]
activity at 3 µM [1]: 398%
activity at 6 µM [2]: 375%

CC(=O)N1c2ccccc2C(Nc2ccc(CC(N)=O)cc2)CC1C (stereo not shown) [Compound 75, 1-acetyl-4-[(4-carbamoylmethylphenyl)amino]-2-methyl-1,2,3,4-tetrahydroquinoline]
activity at 3 µM [1]: 346%
activity at 6 µM [2]: 282%

CC(=O)N1c2ccccc2C(Nc2ccc(N3CCNCC3)cc2)CC1C (stereo not shown) [Compound 76, 1-acetyl-2-methyl-4-[(4-piperazinylphenyl)amino]-1,2,3,4-tetrahydroquinoline]
activity at 3 µM [1]: 227%
activity at 6 µM [2]: 185%

CC(=O)N1c2ccc(N3CCN(C(=O)C4CCCCC4)CC3)cc2C(Nc2ccc(Cl)cc2)CC1C (stereo not shown) [Compound 85, 1-acetyl-4-[(4-chlorophenyl)amino]-6-[(4-cyclohexylcarbonyl)piperazino]-2-methyl-1,2,3,4-tetrahydroquinoline]
activity at 3 µM [1]: 147%
activity at 6 µM [2]: 189%

CC(=O)N1c2ccc(C(N)=O)cc2C(Nc2ccc(N3CCOCC3)cc2)CC1C (stereo not shown) [Compound 92, 1-acetyl-2-methyl-4-[(4-morpholinophenyl)amino]-1,2,3,4-tetrahydroquinoline-6-carboxamide]
activity at 3 µM [1]: 192%
activity at 6 µM [2]: 128%

CC(=O)N1c2ccc(N)cc2C(Nc2ccc(Cl)cc2)CC1C (stereo not shown) [Compound 95, 1-acetyl-6-amino-4-[(4-chlorophenyl)amino]-2-methyl-1,2,3,4-tetrahydroquinoline]
activity at 3 µM [1]: 213%
activity at 6 µM [2]: 158%

CCOC(=O)Nc1ccc2c(c1)C(Nc1ccc(Cl)cc1)CC(C)N2C(C)=O (stereo not shown) [Compound 97, 1-acetyl-4-[(4-chlorophenyl)amino]-2-methyl-1,2,3,4-tetrahydroquinoline-6-ethylcarbamate]
activity at 3 µM [1]: 264%
activity at 6 µM [2]: 553%

CCOC(=O)c1ccc2c(c1)C(Nc1ccc(CC#N)cc1)CC(C)N2C(C)=O (stereo not shown) [Compound 103, ethyl 1-acetyl-4-[(4-cyanomethylphenyl)amino]-2-methyl-1,2,3,4-tetrahydroquinoline-6-carboxylate]
activity at 3 µM [1]: 108%
activity at 6 µM [2]: 485%

CC(=O)N1c2ccc(C(N)=O)cc2C(Nc2ccc(CC#N)cc2)CC1C (stereo not shown) [Compound 104, 1-acetyl-4-[(4-cyanomethylphenyl)amino]-2-methyl-1,2,3,4-tetrahydroquinoline-6-carboxamide]
activity at 3 µM [1]: 204%
activity at 6 µM [2]: 536%

CC(=O)N1c2cc(NS(C)(=O)=O)ccc2C(Nc2ccc(Cl)cc2)CC1C (stereo not shown) [Compound 107, 1-acetyl-4-[(4-chlorophenyl)amino]-7-methanesulfonylamino-2-methyl-1,2,3,4-tetrahydroquinoline.hydrochloride]
activity at 3 µM [1]: 130%
activity at 6 µM [2]: 139%

CC(=O)N1c2ccc(N3CCN(C(=O)C(C)C)CC3)cc2C(Nc2ccc(NS(C)(=O)=O)cc2)CC1C (stereo not shown) [Compound 111, 1-acetyl-6-[(4-isopropylcarbonyl)piperazino]-4-[(4-methanesulfonylaminophenyl)amino]-2-methyl-1,2,3,4-tetrahydroquinoline]
activity at 3 µM [1]: 126%
activity at 6 µM [2]: 46%

CC(=O)N1c2ccc(C(=O)N(C)C)cc2C(Nc2ccc(Cl)cc2)CC1C (stereo not shown) [Compound 113, 1-acetyl-4-[(4-chlorophenyl)amino]-N,N,2-trimethyl-1,2,3,4-tetrahydroquinoline-6-carboxamide]
activity at 3 µM [1]: 112%
activity at 6 µM [2]: 163%

CNC(=O)c1ccc2c(c1)C(Nc1ccc(Cl)cc1)CC(C)N2C(C)=O (stereo not shown) [Compound 114, 1-acetyl-4-[(4-chlorophenyl)amino]-N,2-dimethyl-1,2,3,4-tetrahydroquinoline-6-carboxamide]
activity at 3 µM [1]: 198%
activity at 6 µM [2]: 152%

CC(=O)N1c2ccc(-c3nnn[nH]3)cc2C(Nc2ccc(Cl)cc2)CC1C (stereo not shown) [Compound 119, 1-acetyl-4-[(4-chlorophenyl)amino]-2-methyl-6-(1H-tetrazol-5-yl)-1,2,3,4-tetrahydroquinoline]
activity at 3 µM [1]: 125%
activity at 6 µM [2]: 124%
